Test results published in patent publication US20250243427A1, “PRECURSORS OF PHENOLIC FRAGRANT COMPOUNDS” (GIVAUDAN SA, priority 2021, published 2025).
Entries after “also recorded” stand apart in the source; their conditions may differ.

What was measured:
[1] = Color stability in liquid detergent, visual inspection; type: physicochemical; conditions: 0.2% by weight in unperfumed liquid detergent base, stirred 24 h at room temperature; compared to unperfumed base sample (C)
Source text: The above prepared samples were visually inspected in comparison to an unperfumed base sample (sample C).

[2] = Malodour reduction on washed fabric, trained sensory panel; conditions: 4 day dry cloth washed with unit dose containing 2% of a 10% solution in trietylcitrate, + Male Sweat Malodour, 0-100 line scale; for Perceived Fragrance Intensity: control set at 0; for Perceived Malodour Intensity: malodour control set at 40
Experimental: Fabrics (18 cm×14 cm cotton jersey) were stripped before use. They were then washed in European washing machines (40° C.—1,000 spin/min) with one unit dose (65 g) used per wash load. The unit dose contained 2% of a 10% solution of the compound of formula 1 in trietylcitrate. • a) Compound of example 33 • b) Compound of example 34 • c) Compound of example 1
The total wash load was 1.6 kg made up of test cloths and hand towels (100% cotton) as ballast. The cloth was line dried and left overnight in a perfume free room at 25° C., left to hang for 3 days and then wrapped in foil the day prior to the test (day 3). 30 minutes before the assessment, 50 μL of the pure Male Sweat malodour was placed on top of a cotton pad and introduced into a 500 ml powder jar. One cotton jersey square was then placed over the top of the powder jar and secured with a rubber band. Every sample tested was coded with a random code number.
The malodour and fragrance perceived intensities were assessed by the trained sensory panel using a 0-100 line scale. All malodour and fragrance perceived intensities were scaled against the malodour control sample. The malodour perceived intensity was set at 40 for Male Sweat malodour and the fragrance perceived intensity was set at 0.
The order of samples assessed by the panelists was pre-determined using a balanced randomisation. The samples were assessed in a sequential monadic way. The products were assessed twice by 14 panelists, thus giving 28 assessments per sample.
Before analysis, the data was checked for outliers and extreme violations to normality.
Reliability of the data was checked and data of panelists with poor discrimination, consensus or repeatability may have been removed from the analysis. The data was analysed using analysis of variance (ANOVA). A 5% significance level (95% confidence level) was used. Separate ANOVAs were carried out for malodour and fragrance intensity. The ANOVA have product, panelist, and replicate as factors. Pairwise comparisons of the products were done using the Benjamini-Hochberg correction for multiple testing. The estimated product means are reported.

[3] = Biodegradability, manometric respirometry test (OECD 301F); parameters: key to result (biodegradable class; cell wraps to 'biodegradable'): A compound is readily biodegradable, if the pass level is reached within 10 days within the 28-day period of the test; If the pass level is obtained after 28-day period of the test, the compound can be classified as inherently biodegradable; conditions: for result (biodegradable class; cell wraps to 'biodegradable'): 28-day test, 10-day window; for Biodegradation in %: pass level 60% oxygen consumption of theory
Source text: The results of the biodegradability assessment by the manometric respirometry test (OECD guideline for the testing of materials No. 301F, Paris 1992) are summarized in Table 5.
A compound can be classified biodegradable, if it reaches the pass level of 60% oxygen consumption of theory required for complete mineralization.
A compound is readily biodegradable, if the pass level is reached within 10 days within the 28-day period of the test. The 10-day window begins when the degree of biodegradation has reached 10%. If the pass level is obtained after 28-day period of the test, the compound can be classified as inherently biodegradable.

[4] = Washtest and sensory evaluation of fabric washed with liquid detergent; conditions: for odor intensity, 1 day / odor intensity, 4 days / odour intensity, 1 day / odour intensity, 4 days: scale 0 to 5; for odor intensity, wet / odour intensity, wet: wet fabric, scale 0 (odorless) to 5 (extremely strong); for odour intensity, wet: Table 2 (position of double bond); for odour intensity, 1 day / odour intensity, 4 days: Table 2
Experimental: The wet and line-dried fabric (1 and 4 days) was assessed by a panel of 4-6 experts with regard to odor intensity and quality. The odor intensity was recorded on an intensity scale of 0 (odorless) to 5 (extremely strong).
The odour intensity was recorded on an intensity scale of 0 (odorless) to 5 (extremely strong).
Liquid detergent samples were prepared and used in washtests and subsequent sensory evaluation of the washed and dried fabric as described in Example 45a and c. The odor intensity was recorded on an intensity scale of 0 (odorless) to 5 (extremely strong).

[5] = Odor description on paper blotter; conditions: 1% solution in EtOH on paper blotter, 24 h
[6] = Application in shampoo base, odour on hair swatch; conditions: 0.2% by weight in clear hair shampoo base; dried hair swatch 1 and 3 days; panel of 7 experts
Experimental: A hair shampoo sample (20 g) was prepared by adding 0.2% by weight of 3-ethoxy-4-(hex-3-en-1-yloxy)benzaldehyde (compound of example 3) to unperfumed clear hair shampoo base and mixing on a bottle roller for 24 h at room temperature. An odour-neutral human hair swatch was wetted with warm tap water and lathered delicately with 2 mL of the above hair shampoo sample for 30 sec by hand wearing gloves. The lathered hair swatch was left in a plastic bowl for 2 min, then rinsed under running tap water for 20 sec. After removing excess water by squeezing the hair swatch between two fingers, it was left to dry in open air. The odour of the wet and dried hair swatch (1 and 3 days) was assessed by a panel of 7 experts.

[7] = liquid detergent washtest, dry fabric 1 day
[8] = liquid detergent washtest, dry fabric 4 days
[9] = Table 3, liquid detergent washtest
[10] = Table 3, liquid detergent washtest, dry fabric 1 day
[11] = Table 3, liquid detergent washtest, dry fabric 4 days

Q: Which “Color of liquid detergent sample (visual inspection)” value [1] does the source give for `CCOc1cc(C=O)ccc1O` [Ethylvanillin (A), 3-ethoxy-4-hydroxybenzaldehyde, reference compound] here?
A: strong brown-purple coloration

Q: Which “Perceived Fragrance Intensity” value [2] does the source give for `CC/C=C\CCOc1ccc(C=O)cc1OCC` [Example 1, (Z)-3-ethoxy-4-(hex-3-en-1-yloxy)benzaldehyde] here?
A: 18.3

Q: And the “Perceived Malodour Intensity” value [2]?
A: 29.5

Q: What about the “result (biodegradable class; cell wraps to 'biodegradable')” value (“result” for short) [3] of the same compound?
A: inherently

Q: What about the Biodegradation in % [3] of the same compound?
A: 61%

Q: What about the “Color of liquid detergent sample (visual inspection)” value [1] of the same compound?
A: optically identical to the unperfumed base

Q: And the “odor released from washed T-shirts” value ([4]; 0.2% in liquid detergent, 40° C. machine wash, after 1 and 4 days)?
A: strong vanilla, sweet, powdery and creamy fragrance

Q: And the “odor intensity, 1 day” value ([4]; Table 1, 0.2% in liquid detergent, 40° C. machine wash, line-dried fabric 1 day)?
A: 3

Q: What about the “odor intensity, 4 days” value ([4]; Table 1, 0.2% in liquid detergent, 40° C. machine wash, line-dried fabric 4 days) of the same compound?
A: 3.7

Q: What about the “odor intensity, wet” value ([4]; Table 1, 0.2% in liquid detergent, 40° C. machine wash) of the same compound?
A: 1.3

Q: What about the “odour intensity, wet” value ([4]; liquid detergent washtest) of the same compound?
A: 3.2

Q: What about the “odour intensity, 1 day” value [4, 7] of the same compound?
A: 3.2

Q: And the “odour intensity, 4 days” value [4, 8]?
A: 3.6

Q: And the Odor description [5]?
A: powdery (vanillin) creamy

Q: What does the source list for `CCC=CCCOc1ccc(C=O)cc1OCC` [Example 3, 3-ethoxy-4-(hex-3-en-1-yloxy)benzaldehyde]?
A: odour perceived on dry hair swatch [6]: Five out of seven experts perceived a vanilla note; Odor description [5]: powdery sweet (vanilla)

Q: What does the source list for `CC/C=C\CCOc1ccc(CCC(C)=O)cc1` [Example 6, (Z)-4-(4-(hex-3-en-1-yloxy)phenyl)butan-2-one]?
A: result (biodegradable class; cell wraps to 'biodegradable') [3]: readily; Biodegradation in % [3]: 82%; odor on dry fabric [4, 9]: raspberry; odor intensity, 1 day [4, 10]: 2.8; odor intensity, 4 days [4, 11]: 3.6; odor intensity, wet [4, 9]: 3.0; Odor description [5]: raspberry

Q: With `CC/C=C\CCOc1ccc(C=O)cc1OC` [Example 8, (Z)-4-(hex-3-en-1-yloxy)-3-methoxybenzaldehyde] as the compound, how does the “result” value [3] read?
A: readily

Q: What about the Biodegradation in % [3] of the same compound?
A: 92%

Q: And the Odor description [5]?
A: powdery (vanilla) slightly green

Q: Which “odor on dry fabric” value [4, 9] does the source give for `CC/C=C\CCOc1cc(C)c(C(=O)OC)c(O)c1C` [Example 9, methyl (Z)-4-(hex-3-en-1-yloxy)-2-hydroxy-3,6-dimethylbenzoate] here?
A: oakmoss

Q: What about the “odor intensity, 1 day” value [4, 10] of the same compound?
A: 1.7

Q: What about the “odor intensity, 4 days” value [4, 11] of the same compound?
A: 3.3

Q: And the “odor intensity, wet” value [4, 9]?
A: 1.0

Q: What about the Odor description [5] of the same compound?
A: powdery mossy (Evernyl)

Q: Which “odor on dry fabric” value [4, 9] does the source give for `C=CCc1ccc(OCC/C=C\CC)c(OC)c1` [Example 10, (Z)-4-allyl-1-(hex-3-en-1-yloxy)-2-methoxybenzene] here?
A: spicy, clove,; also recorded: gingerbread

Q: What about the “odor intensity, 1 day” value [4, 10] of the same compound?
A: 2.4

Q: And the “odor intensity, 4 days” value [4, 11]?
A: 2.5

Q: What about the “odor intensity, wet” value [4, 9] of the same compound?
A: 1.6

Q: And the Odor description [5]?
A: slightly spicy

Q: With `C/C=C/c1ccc(OCC/C=C\CC)c(OC)c1` [Example 11, 1-(((Z)-hex-3-en-1-yl)oxy)-2-methoxy-4-((E)-prop-1-en-1-yl)benzene] as the compound, how does the “odor on dry fabric” value [4, 9] read?
A: spicy, vanilla

Q: And the “odor intensity, 1 day” value [4, 10]?
A: 1.9

Q: And the “odor intensity, 4 days” value [4, 11]?
A: 3.0

Q: What about the “odor intensity, wet” value [4, 9] of the same compound?
A: 2.0

Q: And the Odor description [5]?
A: slightly spicy woody

Q: What does the source list for `CC(=O)CCc1ccc(OCCC=C(C)C)cc1` [Example 18, 4-(4-((4-methylpent-3-en-1-yl)oxy)phenyl)butan-2-one]?
A: result (biodegradable class; cell wraps to 'biodegradable') [3]: readily; Biodegradation in % [3]: 91%; Odor description [5]: sweet fruity (raspberry ketone)

Q: What does the source list for `CCOc1cc(C=O)ccc1OC1CC=CC1` [Example 20, 4-(cyclopent-3-en-1-yloxy)-3-ethoxybenzaldehyde]?
A: result (biodegradable class; cell wraps to 'biodegradable') [3]: inherently; Biodegradation in % [3]: 74%; odor on dry fabric [4, 9]: vanilla, powdery; odor intensity, 1 day [4, 10]: 3.0; odor intensity, 4 days [4, 11]: 3.7; Odor description [5]: vanilla (powdery, spicy, creamy)

Q: Which “Perceived Fragrance Intensity” value [2] does the source give for `CC=CCCOc1ccc(C=O)cc1OCC` [Example 33, 3-ethoxy-4-(pent-3-en-1-yloxy)benzaldehyde] here?
A: 22.3

Q: What about the “Perceived Malodour Intensity” value [2] of the same compound?
A: 26.5

Q: What about the “result” value [3] of the same compound?
A: inherently

Q: What about the Biodegradation in % [3] of the same compound?
A: 66%

Q: What about the “odour intensity, wet” value ([4]; liquid detergent washtest) of the same compound?
A: 1.1

Q: What about the “odour intensity, 1 day” value [4, 7] of the same compound?
A: 3.2

Q: And the “odour intensity, 4 days” value [4, 8]?
A: 3.8

Q: What about the Odor description [5] of the same compound?
A: mild, powdery, vanilla, peppery

Q: Which “Perceived Fragrance Intensity” value [2] does the source give for `CCOc1cc(C=O)ccc1OCCC=C(C)C` [Example 34, 3-ethoxy-4-((4-methylpent-3-en-1-yl)oxy)benzaldehyde] here?
A: 31.1

Q: And the “Perceived Malodour Intensity” value [2]?
A: 20.6

Q: What about the “result” value [3] of the same compound?
A: inherently

Q: What about the Biodegradation in % [3] of the same compound?
A: 69%

Q: What about the “odor on dry fabric” value [4, 9] of the same compound?
A: vanilla

Q: What about the “odor intensity, 1 day” value [4, 10] of the same compound?
A: 3.3

Q: What about the “odor intensity, 4 days” value [4, 11] of the same compound?
A: 3.4

Q: And the “odor intensity, wet” value [4, 9]?
A: 1.5

Q: What about the Odor description [5] of the same compound?
A: powdery, vanilla, chocolate
